Experiments:
[1] = molecular target: Peptidyl-prolyl cis-trans isomerase FKBP1A (Homo sapiens, UniProt P62942); assay: In vitro competitive binding to FK506 binding protein 12 versus tritiated FK-506.
T-cell [2] = assay: In vitro inhibition of proliferation of PMA and ionomycin stimulated murine T cells.; type: functional, cell-based; conditions: Mus musculus
T-cell [3] = assay: In vitro inhibition of proliferation of PMA and ionomycin stimulated murine T cells; Antagonist; type: functional, cell-based, Mus musculus

Chain of Peptidyl-prolyl cis-trans isomerase FKBP1A (P62942 whole entry): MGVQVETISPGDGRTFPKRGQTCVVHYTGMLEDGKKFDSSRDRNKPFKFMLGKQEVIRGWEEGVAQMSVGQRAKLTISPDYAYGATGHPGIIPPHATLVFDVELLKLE

| Structure (SMILES) | IC50 [1] [nM] | IC50 (T-cell [2]) [nM] | IC50 (T-cell [3]) |
| --- | --- | --- | --- |
| CC[C@@H]1/C=C(\C)[C@@H](O)[C@H](C)[C@H](OC)[C@H]2O[C@@](O)(C(=O)C(=O)N3CCCC[C@H]3C(=O)O[C@H](/C(C)=C/[C@@H]3CC[C@@H](Oc4ccc5c(ccn5C)c4)[C@H](OC)C3)[C@H](C)[C@@H](O)CC1=O)[C@H](C)C[C@@H]2OC | 2.8 | 5.5 | – |
| CC[C@@H]1/C=C(\C)[C@@H](O)[C@H](C)[C@H](OC)[C@H]2O[C@@](O)(C(=O)C(=O)N3CCCC[C@H]3C(=O)O[C@H](/C(C)=C/[C@@H]3CC[C@@H](O)[C@H](OC)C3)[C@H](C)[C@@H](O)CC1=O)[C@H](C)C[C@@H]2OC | 0.7 | – | Antagonist |
| CC[C@@H]1/C=C(\C)[C@@H](O)[C@H](C)[C@H](OC)[C@H]2O[C@@](O)(C(=O)C(=O)N3CCCC[C@H]3C(=O)O[C@H](/C(C)=C/[C@@H]3CC[C@@H](Oc4ccc5ccccc5c4)[C@H](OC)C3)[C@H](C)[C@@H](O)CC1=O)[C@H](C)C[C@@H]2OC | – | 10.2 | – |
| C=CC[C@@H]1/C=C(\C)C[C@H](C)[C@H](OC)[C@H]2O[C@@](O)(C(=O)C(=O)N3CCCC[C@H]3C(=O)O[C@H](/C(C)=C/[C@@H]3CC[C@@H](O)[C@H](OC)C3)[C@H](C)[C@@H](O)CC1=O)[C@H](C)C[C@@H]2OC | 0.8 | 0.2 | – |
| CC[C@@H]1/C=C(\C)C[C@H](C)[C@H](OC)[C@H]2O[C@@](O)(C(=O)C(=O)N3CCCC[C@H]3C(=O)O[C@H](/C(C)=C/[C@@H]3CC[C@@H](O)[C@H](OC)C3)[C@H](C)[C@@H](O)CC1=O)[C@H](C)C[C@@H]2OC | 1.6 | 0.7 | – |
| CC[C@@H]1/C=C(\C)C[C@H](C)[C@H](OC)[C@H]2O[C@@](O)(C(=O)C(=O)N3CCCC[C@H]3C(=O)O[C@H](/C(C)=C/[C@@H]3CC[C@@H](Oc4ccccc4)[C@H](OC)C3)[C@H](C)[C@@H](O)CC1=O)[C@H](C)C[C@@H]2OC | 10 | 5.4 | – |

More lines, main results first:

| IC50 [1] [nM] | Structure (SMILES) | IC50 (T-cell [2]) [nM] | IC50 (T-cell [3]) |
| --- | --- | --- | --- |
| 74.8 | CC[C@@H]1/C=C(\C)C[C@H](C)[C@H](OC)[C@H]2O[C@@](O)(C(=O)C(=O)N3CCCC[C@H]3C(=O)O[C@H](/C(C)=C/[C@@H]3CC[C@@H](Oc4ccc5ccccc5c4)[C@H](OC)C3)[C@H](C)[C@@H](O)CC1=O)[C@H](C)C[C@@H]2OC | 1.8 | – |
| 3.6 | CC[C@@H]1/C=C(\C)C[C@H](C)[C@H](OC)[C@H]2O[C@@](O)(C(=O)C(=O)N3CCCC[C@H]3C(=O)O[C@H](/C(C)=C/[C@@H]3CC[C@@H](Oc4ccc5c(ccn5C)c4)[C@H](OC)C3)[C@H](C)[C@@H](O)CC1=O)[C@H](C)C[C@@H]2OC | 0.2 | – |
| 5.1 | CC[C@@H]1/C=C(\C)C[C@H](C)[C@H](OC)[C@H]2O[C@@](O)(C(=O)C(=O)N3CCCC[C@H]3C(=O)O[C@H](/C(C)=C/[C@@H]3CC[C@@H](Oc4ccc5[nH]ccc5c4)[C@H](OC)C3)[C@H](C)[C@@H](O)CC1=O)[C@H](C)C[C@@H]2OC | 0.2 | – |
